Like-named read-outs stand apart in the source and are kept apart here.
Key:
ROCK2 = ROCK2 (Homo sapiens (Human), UniProt O75116); assay: Z'Lyte assay, ROCK2 inhibition at a single concentration; format: biochemical
[1] = tested on: cofilin phosphorylation, HeLa cells; assay: Cofilin phosphorylation by Western Blot (anti-phospho-Ser3-cofilin) in HeLa cells; format: cell-based; conditions: for inhibition at 25 µM: Homo sapiens; for inhibition at 25 µM / % inhibition Cofilin phosphorylation HeLa cells treated 2 h with 25 uM of inhibitor: 2 h
ROCK1 = ROCK1 (Homo sapiens (Human), UniProt Q13464); assay: Z'Lyte assay, ROCK1 inhibition at a single concentration; format: biochemical
[2] = tested on: cofilin phosphorylation, MPNST88-14 cells; assay: Cofilin phosphorylation by Western Blot in MPNST88-14 cells; format: cell-based
[3] = tested on: cofilin phosphorylation, MPNST90-8 cells; assay: Cofilin phosphorylation by Western Blot in MPNST90-8 cells; format: cell-based; conditions: MPNST90-8 cells, 25 uM
LIMK2 = LIMK2 (Homo sapiens (Human), UniProt P53671); assay: Lanthascreen Eu binding assay (TR-FRET), inhibition of LIMK2
LIMK1 = LIMK1 (Homo sapiens (Human), UniProt P53667); assay: Lanthascreen Eu binding assay (TR-FRET), inhibition of LIMK1
[4] = read-out: % inhibition (ROCK2) 1 uM
[5] = HeLa, read-out: % inhibition Cofilin phosphorylation HeLa cells treated 2 h with 25 uM of inhibitor
[6] = HeLa, read-out: % inhibition of cofilin phosphorylation in HeLa cells (treatment 2 h, at 25 μM)
[7] = read-out: % inhibition (ROCK1) 1 uM
[8] = 2 h, read-out: % inhibition Cofilin phosphorylation MPNST88-14 cells treated 2 h with 25 uM of inhibitor
[9] = Table 2, normalized to the control condition DMSO
[10] = HeLa, read-out: % inhibition of cofilin phosphorylation in HeLa cells (treatment 2 h, at 25 μM), Table 2, normalized to the control condition DMSO
[11] = read-out: % inhibition Cofilin phosphorylation HeLa cells treated 2 h with 25 uM of inhibitor, HeLa cells, 25 uM
[12] = read-out: % inhibition Cofilin phosphorylation MPNST88-14 cells treated 2 h with 25 uM of inhibitor, MPNST88-14 cells, 25 uM
[13] = read-out: % inhibition (ROCK2) 1 uM, 1 uM
[14] = read-out: % inhibition (ROCK1) 1 uM, 1 uM

Chain of ROCK1 (Q13464 whole entry): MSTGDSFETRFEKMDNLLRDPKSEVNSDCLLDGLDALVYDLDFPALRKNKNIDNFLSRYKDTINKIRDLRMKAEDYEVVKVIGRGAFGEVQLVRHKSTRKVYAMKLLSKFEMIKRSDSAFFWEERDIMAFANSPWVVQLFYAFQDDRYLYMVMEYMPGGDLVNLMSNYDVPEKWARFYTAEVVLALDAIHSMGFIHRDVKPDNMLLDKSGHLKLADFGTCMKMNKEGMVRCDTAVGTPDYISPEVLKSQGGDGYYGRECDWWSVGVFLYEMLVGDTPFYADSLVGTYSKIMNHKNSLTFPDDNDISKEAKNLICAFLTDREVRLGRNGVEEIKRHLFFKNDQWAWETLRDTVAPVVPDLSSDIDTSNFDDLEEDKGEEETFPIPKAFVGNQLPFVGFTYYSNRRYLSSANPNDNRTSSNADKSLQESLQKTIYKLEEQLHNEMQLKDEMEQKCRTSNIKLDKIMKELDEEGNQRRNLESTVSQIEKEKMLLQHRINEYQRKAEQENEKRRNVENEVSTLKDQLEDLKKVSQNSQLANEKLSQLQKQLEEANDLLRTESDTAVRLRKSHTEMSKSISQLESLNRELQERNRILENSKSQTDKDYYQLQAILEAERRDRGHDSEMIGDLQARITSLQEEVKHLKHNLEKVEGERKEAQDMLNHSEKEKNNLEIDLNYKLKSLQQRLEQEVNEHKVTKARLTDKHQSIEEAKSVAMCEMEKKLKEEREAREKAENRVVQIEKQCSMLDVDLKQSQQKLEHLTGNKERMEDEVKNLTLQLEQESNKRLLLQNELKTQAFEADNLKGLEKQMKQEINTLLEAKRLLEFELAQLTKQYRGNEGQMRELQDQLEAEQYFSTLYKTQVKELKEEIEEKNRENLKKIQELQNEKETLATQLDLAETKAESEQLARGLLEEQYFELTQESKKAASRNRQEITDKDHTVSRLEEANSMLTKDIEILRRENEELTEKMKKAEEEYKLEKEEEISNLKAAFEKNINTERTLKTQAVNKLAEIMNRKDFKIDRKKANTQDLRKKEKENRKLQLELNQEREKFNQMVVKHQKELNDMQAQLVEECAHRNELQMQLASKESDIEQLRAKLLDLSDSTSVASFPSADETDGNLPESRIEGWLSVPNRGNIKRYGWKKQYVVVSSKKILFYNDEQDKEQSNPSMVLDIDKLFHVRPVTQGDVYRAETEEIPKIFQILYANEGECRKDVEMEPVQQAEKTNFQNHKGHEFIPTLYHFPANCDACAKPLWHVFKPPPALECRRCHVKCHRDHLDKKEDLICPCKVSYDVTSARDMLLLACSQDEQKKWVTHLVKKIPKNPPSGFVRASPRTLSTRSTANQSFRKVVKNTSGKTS
Chain of ROCK2 (O75116 whole entry): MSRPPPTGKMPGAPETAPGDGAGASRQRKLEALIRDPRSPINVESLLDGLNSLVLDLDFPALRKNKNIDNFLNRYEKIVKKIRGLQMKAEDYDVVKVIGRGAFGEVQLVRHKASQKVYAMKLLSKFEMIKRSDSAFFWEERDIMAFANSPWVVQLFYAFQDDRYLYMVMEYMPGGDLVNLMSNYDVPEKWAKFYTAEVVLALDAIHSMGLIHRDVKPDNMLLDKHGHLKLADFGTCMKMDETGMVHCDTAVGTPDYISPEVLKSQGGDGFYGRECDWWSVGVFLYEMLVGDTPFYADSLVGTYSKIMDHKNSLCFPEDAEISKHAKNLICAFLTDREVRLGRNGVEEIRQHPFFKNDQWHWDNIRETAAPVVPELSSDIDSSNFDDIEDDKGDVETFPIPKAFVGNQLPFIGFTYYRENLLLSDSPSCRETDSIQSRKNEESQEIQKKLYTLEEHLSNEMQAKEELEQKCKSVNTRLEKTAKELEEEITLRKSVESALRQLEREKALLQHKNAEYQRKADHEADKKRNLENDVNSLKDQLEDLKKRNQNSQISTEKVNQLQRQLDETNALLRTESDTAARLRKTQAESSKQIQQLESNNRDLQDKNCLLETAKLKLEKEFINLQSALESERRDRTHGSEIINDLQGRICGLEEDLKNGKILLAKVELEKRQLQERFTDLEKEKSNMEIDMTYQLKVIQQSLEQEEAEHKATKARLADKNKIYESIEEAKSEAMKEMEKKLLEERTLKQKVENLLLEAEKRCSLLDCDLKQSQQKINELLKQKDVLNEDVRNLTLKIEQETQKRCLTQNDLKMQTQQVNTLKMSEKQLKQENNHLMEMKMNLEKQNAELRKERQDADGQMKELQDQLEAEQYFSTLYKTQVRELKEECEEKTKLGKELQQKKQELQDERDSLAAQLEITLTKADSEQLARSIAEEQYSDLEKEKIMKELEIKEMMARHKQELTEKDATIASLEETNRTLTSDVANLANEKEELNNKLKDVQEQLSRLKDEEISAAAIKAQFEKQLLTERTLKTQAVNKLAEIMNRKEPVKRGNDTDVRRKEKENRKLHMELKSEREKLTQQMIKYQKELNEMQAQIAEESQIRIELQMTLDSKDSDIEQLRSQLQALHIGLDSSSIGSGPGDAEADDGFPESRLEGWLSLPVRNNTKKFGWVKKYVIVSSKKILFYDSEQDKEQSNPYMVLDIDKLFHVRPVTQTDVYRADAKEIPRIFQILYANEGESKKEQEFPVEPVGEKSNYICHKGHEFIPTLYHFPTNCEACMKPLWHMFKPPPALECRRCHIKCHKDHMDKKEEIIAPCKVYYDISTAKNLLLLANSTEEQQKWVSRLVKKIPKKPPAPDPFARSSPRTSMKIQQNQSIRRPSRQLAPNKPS
Chain of LIMK2 (P53671 whole entry): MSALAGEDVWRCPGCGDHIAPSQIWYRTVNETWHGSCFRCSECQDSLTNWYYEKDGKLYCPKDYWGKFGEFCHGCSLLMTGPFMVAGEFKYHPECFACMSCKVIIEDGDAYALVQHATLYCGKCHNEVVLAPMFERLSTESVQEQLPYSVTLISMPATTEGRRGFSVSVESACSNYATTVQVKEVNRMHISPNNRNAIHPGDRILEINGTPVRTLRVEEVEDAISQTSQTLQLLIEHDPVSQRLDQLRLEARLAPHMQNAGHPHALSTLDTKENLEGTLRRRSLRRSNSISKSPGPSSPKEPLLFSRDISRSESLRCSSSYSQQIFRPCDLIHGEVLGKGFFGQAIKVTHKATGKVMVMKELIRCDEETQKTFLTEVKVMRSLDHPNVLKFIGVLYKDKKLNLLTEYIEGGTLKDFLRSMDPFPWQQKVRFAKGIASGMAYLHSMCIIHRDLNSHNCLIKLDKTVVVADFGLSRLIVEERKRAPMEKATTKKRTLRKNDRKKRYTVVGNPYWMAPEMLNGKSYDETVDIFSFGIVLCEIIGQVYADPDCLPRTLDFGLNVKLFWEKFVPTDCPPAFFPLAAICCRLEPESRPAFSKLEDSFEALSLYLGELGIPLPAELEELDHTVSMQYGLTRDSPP
Chain of LIMK1 (P53667 whole entry): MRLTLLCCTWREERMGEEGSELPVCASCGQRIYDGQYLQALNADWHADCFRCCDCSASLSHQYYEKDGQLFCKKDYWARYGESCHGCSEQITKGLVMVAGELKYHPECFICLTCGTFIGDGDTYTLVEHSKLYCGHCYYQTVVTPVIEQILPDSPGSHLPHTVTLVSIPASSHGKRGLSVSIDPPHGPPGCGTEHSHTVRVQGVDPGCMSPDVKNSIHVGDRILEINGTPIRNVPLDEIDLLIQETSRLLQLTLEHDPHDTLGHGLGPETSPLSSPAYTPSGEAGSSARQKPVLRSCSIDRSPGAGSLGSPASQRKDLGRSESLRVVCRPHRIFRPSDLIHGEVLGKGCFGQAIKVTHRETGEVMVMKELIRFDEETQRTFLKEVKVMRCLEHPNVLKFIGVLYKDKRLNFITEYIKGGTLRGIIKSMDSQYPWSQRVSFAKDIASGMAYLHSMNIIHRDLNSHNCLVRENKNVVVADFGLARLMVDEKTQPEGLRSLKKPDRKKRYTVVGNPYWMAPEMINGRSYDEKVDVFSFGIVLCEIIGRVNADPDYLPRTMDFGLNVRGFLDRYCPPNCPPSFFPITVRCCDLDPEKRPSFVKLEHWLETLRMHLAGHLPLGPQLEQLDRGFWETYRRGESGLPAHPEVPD

SMILES | inhibition at 1 µM (ROCK2; [4]) [%] | inhibition at 1 µM (ROCK1; [7]) [%] | Ki (LIMK2; Lanthascreen Eu binding assay) [nM] | inhibition at 25 µM [1, 10] [%] | inhibition at 25 µM [1, 11] [%] | Ki (LIMK1; Lanthascreen Eu binding assay) [nM] | inhibition at 1 µM (ROCK2; [13]) [%] | inhibition at 1 µM (ROCK1; [14]) [%] | other results
Cc1c[nH]c2ncnc(C3=CC(C)N(C(=O)Nc4cccc(Cl)c4)C(C)C3)c12 (centres unmarked) [Compound 58, N-(3-Chlorophenyl)-2,6-dimethyl-4-(5-methyl-7H-pyrrolo[2,3-d]pyrimidin-4-yl)-3,6-dihydropyridine-1(2H)-carboxamide] | 32 | 34 |  |  |  |  |  |  | inhibition at 25 µM [1, 5]: 91.4%; inhibition at 25 µM [1, 6]: 91.4%; inhibition at 25 µM [2, 8]: 77.3%
Cc1c[nH]c2ncnc(C3=CC(C)N(C(=O)Nc4cccc(Br)c4)C(C)C3)c12 (centres unmarked) [Compound 59, N-(3-Bromophenyl)-2,6-dimethyl-4-(5-methyl-7H-pyrrolo[2,3-d]pyrimidin-4-yl)-3,6-dihydropyridine-1(2H)-carboxamide] | 40 | 34 |  |  |  |  |  |  | inhibition at 25 µM [1, 5]: 93.6%; inhibition at 25 µM [1, 6]: 93.6%; inhibition at 25 µM [2, 8]: 74.7%
Cc1c[nH]c2ncnc(C3=CC(C)N(C(=O)Nc4cccc(Oc5ccccc5)c4)C(C)C3)c12 (centres unmarked) [Compound 60, 2,6-Dimethyl-4-(5-methyl-7H-pyrrolo[2,3-d]pyrimidin-4-yl)-N-(3-phenoxyphenyl)-3,6-dihydro pyridine-1(2H)-carboxamide] |  |  |  |  |  |  |  |  | % inhibition (ROCK2) 1 uM (ROCK2): 7%; % inhibition Cofilin phosphorylation MPNST90-8 cells treated 2 h with 25 uM of inhibitor [3]: 81.1%; % inhibition Cofilin phosphorylation HeLa cells treated 2 h with 25 uM of inhibitor ([1]; HeLa cells, 25 uM): 94.2%; % inhibition of cofilin phosphorylation in HeLa cells (treatment 2 h, at 25 μM) [1, 9]: 94.2%; % inhibition (ROCK1) 1 uM (ROCK1): 11%; % inhibition Cofilin phosphorylation MPNST88-14 cells treated 2 h with 25 uM of inhibitor ([2]; MPNST88-14 cells, 25 uM): 74.5%
O=C(Nc1cccc(Cl)c1)N1CC=C(c2ncnc3[nH]c4c(c23)CCCC4)CC1 [Compound 114, N-(3-Chlorophenyl)-4-(6,7,8,9-tetrahydro-5H-pyrimido[4,5-b]indol-4-yl)-3,6-dihydropyridine-1(2H)-carboxamide] | 8 | 4 | 25.5 | 89.3 | 89.3 | 9.98 |  |  | inhibition at 25 µM [2, 12]: 74.7%
CN(C)C(=O)Oc1cccc(NC(=O)N2CC=C(c3ncnc4[nH]c5c(c34)CCC5)CC2)c1 [Compound 122, 3-(4-(5,6,7,8-Tetrahydrocyclopenta[4,5]pyrrolo[2,3-d]pyrimidin-4-yl)-1,2,3,6-tetrahydropyridine-1-carboxamido)phenyl dimethyl carbamate] |  |  | 4.02 |  |  | 7.11 |  |  | % inhibition (ROCK2) 1 uM (ROCK2): 14%; % inhibition Cofilin phosphorylation MPNST90-8 cells treated 2 h with 25 uM of inhibitor [3]: 65.6%; % inhibition Cofilin phosphorylation HeLa cells treated 2 h with 25 uM of inhibitor ([1]; HeLa cells, 25 uM): 81.3%; % inhibition of cofilin phosphorylation in HeLa cells (treatment 2 h, at 25 μM) [1, 9]: 81.3%; % inhibition (ROCK1) 1 uM (ROCK1): 4%
CNC(=O)c1cccc(NC(=O)N2CC=C(c3ncnc4[nH]c5c(c34)CCC5)CC2)c1 [Compound 133, N-[3-(Methylcarbamoyl)phenyl]-4-(7,9,11-triazatricyclo [6.4.0.02,6]dodeca-1(8),2(6),9,11-tetraen-12-yl)-3,6-dihydropyridine-1(2)-carboxamide] |  |  | 40.5 |  |  | 49.1 |  |  | % inhibition (ROCK2) 1 uM (ROCK2): 1%; % inhibition Cofilin phosphorylation HeLa cells treated 2 h with 25 uM of inhibitor ([1]; HeLa cells, 25 uM): 78.8%; % inhibition of cofilin phosphorylation in HeLa cells (treatment 2 h, at 25 μM) [1, 9]: 78.8%; % inhibition (ROCK1) 1 uM (ROCK1): −19%
CN(C)C(=O)c1cccc(NC(=O)N2CC=C(c3ncnc4[nH]c5c(c34)CCC5)CC2)c1 [Compound 134, N-[3-(Dimethylcarbamoyl)phenyl]-4-(7,9,11-triazatricyclo [6.4.0.02,6]dodeca-1(8),2(6),9,11-tetraen-12-yl)-3,6-dihydropyridine-1(2H)-carboxamide] |  |  | 33.4 | 77.1 | 77.1 | 36.1 | -5 | -20 | 
COCOCc1cccc(NC(=O)N2CC=C(c3ncnc4[nH]c5c(c34)CCC5)CC2)c1 [Compound 135, N-[3-(Methoxymethoxymethyl)phenyl]-4-(7,9,11-triaza-tricyclo[6.4.0.02,6]dodeca-1(8),2(6),9,11-tetraen-12-yl)-3,6-dihydropyridine-1(2H)-carboxamide] |  |  | 36.2 | 85 | 85 | 22.1 | -3 | -14 | 
COc1ccc(-c2cccc(NC(=O)N3CC=C(c4ncnc5[nH]c6c(c45)CCC6)CC3)c2)cc1 [Compound 136, N-[3-(4-Methoxyphenyl)phenyl]-4-(7,9,11-triaza-tricyclo[6.4.0.02,6]dodeca-1(8),2(6),9,11-tetraen-12-yl)-3,6-dihydropyridine-1(2H)-carboxamide] |  |  | 21.6 | 85.5 | 85.5 | 2.75 | 11 | 6 | 
O=C(Nc1cccc(F)c1)N1CC=C(c2ncnc3[nH]c4c(c23)CSCC4)CC1 [Compound 154, N-(3-Fluorophenyl)-4-(5,7,8,9-tetrahydrothiopyrano[3′,4′:4,5]pyrrolo[2,3-d]pyrimidin-4-yl)-3,6-dihydropyridine-1(2H)-carboxamide] |  |  | 78.6 |  | 66.9 | 52.7 | 7 | 5 | inhibition at 25 µM [2, 12]: 57.7%
O=C(Nc1cccc(Cl)c1)N1CC=C(c2ncnc3[nH]c4c(c23)CSCC4)CC1 [Compound 155, N-(3-Chlorophenyl)-4-(5,7,8,9-tetrahydrothiopyrano [3′,4′:4,5]pyrrolo[2,3-d]pyrimidin-4-yl)-3,6-dihydropyridine-1(2H)-carboxamide] | 14 | 10 | 94.2 |  | 72.8 | 94.1 |  |  | inhibition at 25 µM [2, 12]: 57.7%
O=C(Nc1cccc(Br)c1)N1CC=C(c2ncnc3[nH]c4c(c23)CSCC4)CC1 [Compound 156, N-(3-Bromophenyl)-4-(5,7,8,9-tetrahydrothiopyrano [3′,4′:4,5]pyrrolo[2,3-d]pyrimidin-4-yl)-3,6-dihydropyridine-1(2H)-carboxamide] | 15 | 3 |  |  |  |  |  |  | Ki (LIMK2): 31.5 nM; inhibition at 25 µM [1, 5]: 68.2%; inhibition at 25 µM [2, 8]: 61.6%; Ki (LIMK1): 41.4 nM
O=C(Nc1cccc(F)c1)N1CC=C(c2ncnc3[nH]c4c(c23)COCC4)CC1 [Compound 157, N-(3-Fluorophenyl)-4-(5,7,8,9-tetrahydropyrano[3′,4′:4,5]pyrrolo[2,3-d]pyrimidin-4-yl)-3,6-dihydropyridine-1(2H)-carboxamide] |  |  | 319 | 79.5 | 79.5 | 172 | -1 | 7 | inhibition at 25 µM [2, 12]: 56.5%
O=C(Nc1cccc(Cl)c1)N1CC=C(c2ncnc3[nH]c4c(c23)COCC4)CC1 [Compound 158, N-(3-Chlorophenyl)-4-(5,7,8,9-tetrahydropyrano[3′,4′:4,5]pyrrolo[2,3-d]pyrimidin-4-yl)-3,6-dihydropyridine-1(2H)-carboxamide] | 1 | 2 | 93 |  | 65.3 | 65.6 |  |  | inhibition at 25 µM [2, 12]: 59.8%
O=C(Nc1cccc(Br)c1)N1CC=C(c2ncnc3[nH]c4c(c23)COCC4)CC1 [Compound 159, N-(3-Bromophenyl)-4-(5,7,8,9-tetrahydropyrano[3′,4′:4,5]pyrrolo[2,3-d]pyrimidin-4-yl)-3,6-dihydropyridine-1(2H)-carboxamide] | 3 | 11 |  |  |  |  |  |  | Ki (LIMK2): 51.5 nM; inhibition at 25 µM [1, 5]: 70.3%; inhibition at 25 µM [2, 8]: 64.3%; Ki (LIMK1): 51 nM
Cc1c[nH]c2ncnc(C3=CCN(C(=O)Nc4cccc(-c5cccc(OCCCNS(C)(=O)=O)c5)c4)CC3)c12 [Compound 175, N-[3-[3-[3-(methanesulfonamido)propoxy]phenyl]phenyl]-4-(5-methyl-7H-pyrrolo[2,3-d]pyrimidin-4-yl)-3,6-dihydro-2H-pyridine-1-carboxamide] |  |  | 9.66 |  | 98.1 | 12 | 36 | 43 | 
Cc1c[nH]c2ncnc(C3=CCN(C(=O)Nc4cccc(OCC5CCC(F)(F)CC5)c4)CC3)c12 [Compound 191, N-(3-((4,4-difluorocyclohexyl)methoxy)phenyl)-4-(5-methyl-7H-pyrrolo[2,3-d]pyrimidin-4-yl)-3,6-dihydropyridine-1(2H)-carboxamide] |  |  | 217 | 87 |  | 85.5 | 57 | 72 | 
